Results published in PMC8300879 (Journal of medicinal chemistry, 2021).

Legend:
[1] = system: ABC derived from IPF patients; assay: 3D organoid; format: cell-based, human; settings: ABC from IPF patients (n = 3), 14 days
[2] = system: acetylation of histone H3 (primary substrate of HDAC1 and other nuclear HDACs) in NB4, U87 and U2OS cells; assay: Western blot, acetylation of histone H3 in cancer cell lines; format: cell-based; settings: 5 μM for 30 h
[3] = system: tubulin acetylation (the client protein of HDAC6) in NB4, U87 and U2OS cells; assay: Western blot, acetylation of α-tubulin in cancer cell lines; format: cell-based; settings: 5 μM for 30 h; for acetylation of tubulin: NB4 and U87 cells
[4] = system: TA98 and TA100 strains of Salmonella typhimurium; assay: Ames test with and without S9 fraction; format: cell-based; settings: TA98 and TA100, with and without S9 fraction of rat liver, 1–75 μM
[5] = system: TGF-β1-stimulated human lung parenchyma; assay: Human lung tissue explant model of TGF-β1-dependent fibrogenesis; format: cell-based; settings: 6h 4.1 μM, TGF-β1 10 ng/ml, 7 days
[6] = system: zebrafish larvae (Danio rerio); assay: Toxicity screen and optokinetic visual behaviour assay in zebrafish larvae; format: in vivo

| SMILES | spheres formation [1] | histone H3 acetylation [2] | acetylation of tubulin [3] | mutagenic effect [4] | mRNA expression for HDAC6 ([5]; n = 3 donors) | mRNA expression for collagen type I ([5]; n = 6 donors) | mRNA expression for collagen type III ([5]; n = 6 donors) | mRNA expression for fibronectin ([5]; n = 6 donors) | mRNA expression for α-SMA ([5]; n = 6 donors) | toxic effects observed ([6]; 100 μM, 3 days old larvae treated for 2 days) | well tolerated concentration ([6]; 3 days old larvae treated for 2 days, 1-100 μM) | visual behavior versus vehicle control (0.1% DMSO) ([6]; five days old larvae, 1 to 100 μM) | acetylation of α-tubulin versus histone H3 ([3]; U2OS cell line) |
| --- | --- | --- | --- | --- | --- | --- | --- | --- | --- | --- | --- | --- | --- |
| CN1CCC2(CC1)c1ccccc1N(Cc1ccc(C(=O)NO)cc1)C2c1ccccc1 (racemic) [(±)-6a, (±)-N-Hydroxy-4-((1’-methyl-2-phenylspiro[indoline-3,4’-piperidin]-1-yl)methyl)benzamide] | complete inhibition | unchanged | marked acetylation of tubulin |  |  |  |  |  |  |  |  |  |  |
| CN1CCC2(CC1)c1ccccc1N(Cc1ccc(C(=O)NO)cc1)C2c1ccccc1F (racemic) [(±)-6d, (±)-4-((2-(2-Fluorophenyl)-1’-methylspiro[indoline-3,4’-piperidin]-1-yl)methyl)-N-hydroxybenzamide] | complete inhibition | also induced the acetylation of histone H3 | equally effective in inhibiting HDAC6 |  |  |  |  |  |  |  |  |  |  |
| CN1CCC2(CC1)c1ccccc1N(Cc1ccc(C(=O)NO)cc1)C2c1ccc(F)cc1 (racemic) [(±)-6e, (±)-4-((2-(4-Fluorophenyl)-1’-methylspiro[indoline-3,4’-piperidin]-1-yl)methyl)-N-hydroxybenzamide] |  | unchanged | marked acetylation of tubulin |  |  |  |  |  |  |  |  |  |  |
| CC1(C)c2ccccc2N(Cc2ccc(C(=O)NO)cc2)C1c1cccnc1 (racemic) [(±)-6h, (±)-4-((3,3-Dimethyl-2-(pyridin-3-yl)indolin-1-yl)methyl)-N-hydroxybenzamide] | complete inhibition | unchanged | marked acetylation of tubulin | no mutagenic effect | significantly inhibited | significantly inhibited | significantly inhibited | significantly inhibited | significantly inhibited | some larvae failed to inflate their swim bladder and presented mild cardiac edema | up to 50 μM | no significant changes |  |
| CC1(C)c2ccccc2N(Cc2ccc(C(=O)NO)cc2)C1c1ccncc1 (racemic) [(±)-6l] | complete inhibition | unchanged | marked acetylation of tubulin |  |  |  |  |  |  |  |  |  | preferentially promote acetylation of α-tubulin |
